The nature of this data set: Liver microsome stability test. Type of data set: in vitro ADME. As to conditions: human liver microsomes 0.5 mg/mL, compound 1 μM, NADPH 1 mM, 60 minutes. (Microsomes from liver hold many membrane-bound enzymes, among them those of drug oxidation.)

A value given as a limit tells only on which side of the number the result lay.

One may read the CLint scaled as a measure of how fast metabolising enzymes remove a compound, apart from limits set by blood flow.

For `CCc1c(N2CCN(C(=O)c3ncnc(C)c3O)CC2)c(=O)n2nc(C3=CCOCC3)nc2n1CC(=O)Nc1ccc(C(F)(F)F)c2ccoc12` [Compound H22], the CLint scaled at 1 μM was < 6.8 mL/min/kg. Besides, the microsomal CLint at 1 μM (read-out: Human Clint μL/min/mg Protein) is < 5.4 µL/min/mg.

The values are drawn from patent publication US20260216197A1, “WRN HELICASE INHIBITOR” (SUZHOU PUHE BIOPHARMA CO., LTD., priority 2022, published 2026).
